Data on one compound can be found in publication PMC12799421, “Inhibition of constitutive activity of the atypical chemokine receptor 3 by the small-molecule inverse agonist VUF16840” (Molecular Pharmacology, 2025).

What all share (assay type): cell-based
The target of one experiment is T1, hCXCR4-NLuc (Homo sapiens, UniProt P61073).
T1 construct: expressed in transfected cells; host or cells: HEK293T
Briefly: Bystander BRET detection of CXCR4 membrane localization. The following applies: 1 μM VUF16840. As to the method: Ligand-induced receptor mobilization to the plasma membrane was monitored by bystander NanoBRET according to an established method.[36] For this assay, 5 × 10^6 HEK293T cells were seeded in 10-cm dishes and cotransfected with plasmids encoding ACKR3 C-terminally tagged with NLuc and mNeonGreen N-terminally tagged with the plasma membrane targeting sequence corresponding to the first 11 residues ([…]) of the human Lyn-kinase.[37] Twenty-four hours after transfection, cells were distributed into black 96-well plates (1 × 10^5 cells per well) and treated with chemokines (100 nM). After 45-minute incubation at 37 °C, coelenterazine H (10 μM) was added and donor emission (460 nm) and acceptor emission (535 nm) were immediately measured on a GloMax Discover (Promega) plate reader.
The resulting proximity between hACKR3-NLuc and was determined as bystander BRET. […] (B) The same assay was performed as in A for hCXCR4-NLuc. […] Expression of hACKR3-NLuc at the cell surface was determined by the measurement of bystander BRET. Depicted data represents the mean ± SD of 3 experiments with triplicate measurements per experiment.
On the technique in general: BRET reads energy transfer from a luciferase to a nearby fluorophore.

Experiment [1] deals with panel of 19 human chemokine receptors. Briefly: NanoBiT-complementation based chemokine receptor screen (agonist and antagonist mode). As to the method:
The pharmacological modulation of all chemokine receptors by VUF16840 was performed according to an established method.[8]^,[23]^,[39] Briefly, β-arrestin2 recruitment to chemokine receptors in response to 1 μM VUF16840 or positive control chemokines was monitored by NanoLuc complementation assay (NanoBiT, Promega). Four hours after transfection, cells were harvested, incubated for 25 minutes at 37 °C with furimazine and distributed into a white 96-well plates (1 × 10^5 cells per well). β-Arrestin2 recruitment was then detected for 20 minutes upon treatment with 1 μM VUF16840 (or increasing concentrations ligand for experiments with CC chemokine receptor [CCR3]) using the Mithras LB940 luminometer (Berthold Technologies). To evaluate the antagonist properties of VUF16840, full agonists of each receptor were added after the 20-minute incubation with VUF16840. Signal from wells treated with full agonist only was defined as 100% activity and signals from wells treated with no agonist were used to set 0% activity. […]
Fig. 4 Modulation of a panel of chemokine receptors by VUF16840. β-Arrestin2 recruitment toward a full panel of 19 chemokine receptor was measured using a NLuc complementation assay in HEK293T cells. […]

The target in another experiment is CCR3 (Homo sapiens, UniProt P51677). Briefly: NanoBiT β-arrestin2 recruitment to CCR3, concentration-response. On the procedure: The pharmacological modulation of all chemokine receptors by VUF16840 was performed according to an established method.[8]^,[23]^,[39] Briefly, β-arrestin2 recruitment to chemokine receptors in response to 1 μM VUF16840 or positive control chemokines was monitored by NanoLuc complementation assay (NanoBiT, Promega). Four hours after transfection, cells were harvested, incubated for 25 minutes at 37 °C with furimazine and distributed into a white 96-well plates (1 × 10^5 cells per well). β-Arrestin2 recruitment was then detected for 20 minutes upon treatment with 1 μM VUF16840 (or increasing concentrations ligand for experiments with CC chemokine receptor [CCR3]) using the Mithras LB940 luminometer (Berthold Technologies). To evaluate the antagonist properties of VUF16840, full agonists of each receptor were added after the 20-minute incubation with VUF16840. Signal from wells treated with full agonist only was defined as 100% activity and signals from wells treated with no agonist were used to set 0% activity.
Chain of CCR3 (P51677 whole entry): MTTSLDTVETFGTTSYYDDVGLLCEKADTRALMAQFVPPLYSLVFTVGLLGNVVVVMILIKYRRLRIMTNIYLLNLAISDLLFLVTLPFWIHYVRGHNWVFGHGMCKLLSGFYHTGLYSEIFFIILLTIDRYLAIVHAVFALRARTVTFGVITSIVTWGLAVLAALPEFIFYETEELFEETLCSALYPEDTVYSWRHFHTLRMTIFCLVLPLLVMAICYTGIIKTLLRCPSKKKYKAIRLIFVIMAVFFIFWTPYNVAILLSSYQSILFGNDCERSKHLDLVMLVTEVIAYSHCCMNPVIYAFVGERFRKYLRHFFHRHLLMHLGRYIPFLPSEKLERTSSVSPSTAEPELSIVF
Chain of CCR3 (P32121 whole entry partner): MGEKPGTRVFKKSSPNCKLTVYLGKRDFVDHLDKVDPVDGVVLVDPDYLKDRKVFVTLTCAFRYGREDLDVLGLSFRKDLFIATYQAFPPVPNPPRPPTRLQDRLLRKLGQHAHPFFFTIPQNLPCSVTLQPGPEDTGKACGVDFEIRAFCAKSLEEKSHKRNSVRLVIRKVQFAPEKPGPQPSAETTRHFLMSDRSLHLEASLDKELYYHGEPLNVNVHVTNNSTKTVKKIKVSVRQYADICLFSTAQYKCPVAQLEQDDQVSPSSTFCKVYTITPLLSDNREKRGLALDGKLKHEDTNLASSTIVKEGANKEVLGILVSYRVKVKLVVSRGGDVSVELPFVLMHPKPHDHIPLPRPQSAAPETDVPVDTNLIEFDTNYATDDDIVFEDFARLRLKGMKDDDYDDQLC
Supplemental Figure 5 – Modulation of CCR3 receptor by VUF16840. Recruitment of β-arrestin2 towards CCR3 chemokine receptor was measured using a NLuc complementation assay in HEK293T cells. The concentration-dependent activation of the CCR3 was determined for VUF16840 and the endogenous agonist CCL13. All values depict the mean ± SD of ≥ 3 experiments.

The target of the next experiment is T2, hACKR3-NLuc (Homo sapiens, UniProt P25106).
T2 construct: expressed in transfected cells; host or cells: HEK293T
T2 sequence (P25106 whole entry): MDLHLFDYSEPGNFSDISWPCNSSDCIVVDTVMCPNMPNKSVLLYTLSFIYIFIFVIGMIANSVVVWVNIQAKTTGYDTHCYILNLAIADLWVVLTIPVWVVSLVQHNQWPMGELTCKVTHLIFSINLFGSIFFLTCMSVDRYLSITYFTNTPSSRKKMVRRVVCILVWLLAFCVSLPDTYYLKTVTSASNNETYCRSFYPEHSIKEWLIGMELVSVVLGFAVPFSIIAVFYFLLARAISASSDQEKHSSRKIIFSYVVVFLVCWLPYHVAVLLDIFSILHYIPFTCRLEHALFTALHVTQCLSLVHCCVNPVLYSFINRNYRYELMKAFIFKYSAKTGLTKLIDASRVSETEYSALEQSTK
Briefly: Bystander BRET detection of ACKR3 membrane localization. As to conditions: 1 μM VUF16840.

T1 sequence (P61073 whole entry): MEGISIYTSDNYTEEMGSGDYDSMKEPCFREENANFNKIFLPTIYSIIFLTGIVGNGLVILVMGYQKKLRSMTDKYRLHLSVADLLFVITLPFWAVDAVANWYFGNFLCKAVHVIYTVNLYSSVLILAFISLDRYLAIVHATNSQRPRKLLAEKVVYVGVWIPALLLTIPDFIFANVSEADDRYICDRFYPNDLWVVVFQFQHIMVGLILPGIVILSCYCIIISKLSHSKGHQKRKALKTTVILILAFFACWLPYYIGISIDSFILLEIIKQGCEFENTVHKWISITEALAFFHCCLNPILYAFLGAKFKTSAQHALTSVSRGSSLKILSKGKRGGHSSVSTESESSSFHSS
Method for hACKR3-NLuc: Ligand-induced receptor mobilization to the plasma membrane was monitored by bystander NanoBRET according to an established method.[36] For this assay, 5 × 10^6 HEK293T cells were seeded in 10-cm dishes and cotransfected with plasmids encoding ACKR3 C-terminally tagged with NLuc and mNeonGreen N-terminally tagged with the plasma membrane targeting sequence corresponding to the first 11 residues ([sequence]) of the human Lyn-kinase.[37] Twenty-four hours after transfection, cells were distributed into black 96-well plates (1 × 10^5 cells per well) and treated with chemokines (100 nM). After 45-minute incubation at 37 °C, coelenterazine H (10 μM) was added and donor emission (460 nm) and acceptor emission (535 nm) were immediately measured on a GloMax Discover (Promega) plate reader.
Similarly, to determine the concentration-dependent effects of ligand-induced ACKR3 mobilization to the cell membrane, cells were transfected with membrane-targeted mVenus (mVenus-CAAX) and ACKR3-NL (vide supra). […] Cells were subsequently incubated at 37 °C for 20 minutes after which the total light intensity was measured at 475 and 535 nm (both with a bandwidth of 30 nm) using the PHERAstar-FSX with a dual emission filter. […]
The resulting proximity between hACKR3-NLuc and was determined as bystander BRET. […] Expression of hACKR3-NLuc at the cell surface was determined by the measurement of bystander BRET. […]

As usually defined, the EC50 is the concentration needed to bring the measured effect to its halfway point. In the case of `COc1ccccc1CCNC(=O)C1CN(C2CCCCC2)CCC1NC(=O)c1cc(-c2ccc(F)cc2F)on1` (stereo not drawn) [VUF16840], the “effect on CXCR4 surface expression (bystander BRET)” value on hCXCR4-NLuc is “not affected”. The “agonist mode screen, modulation of β-arrestin2 recruitment” value in experiment [1] (1 μM VUF16840) is “only modulated β-arrestin2 recruitment to hACKR3 and hCCR3”. In addition, the “antagonist-mode inhibition of any tested chemokine receptor” value in experiment [1] (1 μM VUF16840 coincubated with respective endogenous agonist) is given as no more than 50%. Further, the EC50 at CCR3 (HEK293T, NanoBiT, read-out: EC50, activation of CCR3 (β-arrestin2 recruitment)) worked out at 200 nM. Further, at CCR3 (β-arrestin2 recruitment), the “efficacy at CCR3 relative to endogenous agonist CCL13” value stood at 1.4 fold. Moreover, the “effect on bystander BRET signal hACKR3-NLuc / membrane-targeted mNeonGreen (cell surface localization)” value on hACKR3-NLuc was “increased the bystander BRET signals”.
